US9346801B2, “Substituted 7-oxo-pyrido[2,3-d]pyrimidines and methods of use” (AMGEN INC., priority 2013, dated 2016)

What was measured:
Type in all cases: cell-based
[1] = molecular target: T1, Exon19 deletion (Δ746-750) EGFR phosphorylation in HCC827 NSCLC cells (Homo sapiens, UniProt P00533, DEL746-750); assay: Detection of pEGFR on NSCLC cell lines (MSD multiplex), HCC827; conditions: HCC827 (Δ746-750) cells, serum starved, 60 min compound
T1 construct: endogenous in cells; host or cells: HCC827 NSCLC cells
T1 sequence (P00533 with tags, fused parts or gaps DEL746-750): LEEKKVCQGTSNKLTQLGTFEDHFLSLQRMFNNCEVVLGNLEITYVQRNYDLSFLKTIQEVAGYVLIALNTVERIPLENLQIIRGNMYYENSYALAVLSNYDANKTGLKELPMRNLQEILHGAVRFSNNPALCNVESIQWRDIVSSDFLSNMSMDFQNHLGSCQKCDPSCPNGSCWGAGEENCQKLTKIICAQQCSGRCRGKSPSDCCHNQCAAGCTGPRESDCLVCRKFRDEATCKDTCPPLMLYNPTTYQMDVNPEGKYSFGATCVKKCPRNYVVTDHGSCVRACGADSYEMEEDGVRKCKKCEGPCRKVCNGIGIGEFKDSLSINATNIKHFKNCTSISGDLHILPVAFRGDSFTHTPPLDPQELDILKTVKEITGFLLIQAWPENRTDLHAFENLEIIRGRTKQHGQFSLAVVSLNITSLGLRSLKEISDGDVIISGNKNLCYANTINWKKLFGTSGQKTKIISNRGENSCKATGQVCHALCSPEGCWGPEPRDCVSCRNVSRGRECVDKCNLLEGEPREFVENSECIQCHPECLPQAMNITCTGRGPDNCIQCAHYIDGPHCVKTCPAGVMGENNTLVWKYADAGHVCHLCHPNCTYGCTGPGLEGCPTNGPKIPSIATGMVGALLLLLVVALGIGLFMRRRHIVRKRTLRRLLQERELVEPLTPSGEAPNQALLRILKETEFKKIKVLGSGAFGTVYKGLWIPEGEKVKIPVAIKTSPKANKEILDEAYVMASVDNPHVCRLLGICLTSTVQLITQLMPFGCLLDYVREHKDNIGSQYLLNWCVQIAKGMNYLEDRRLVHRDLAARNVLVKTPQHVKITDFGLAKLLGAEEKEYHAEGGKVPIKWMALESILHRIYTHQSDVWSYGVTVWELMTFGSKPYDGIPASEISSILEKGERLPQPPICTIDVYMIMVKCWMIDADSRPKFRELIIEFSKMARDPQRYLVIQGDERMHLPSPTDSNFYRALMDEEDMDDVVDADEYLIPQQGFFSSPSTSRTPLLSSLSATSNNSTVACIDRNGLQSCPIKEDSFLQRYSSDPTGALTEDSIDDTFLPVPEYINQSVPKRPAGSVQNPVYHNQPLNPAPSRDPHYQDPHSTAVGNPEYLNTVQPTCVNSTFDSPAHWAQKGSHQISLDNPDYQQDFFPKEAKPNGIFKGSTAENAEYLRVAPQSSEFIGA
Experimental: (§1) The effects of compounds on the phosphorylation of wild-type, T790M mutant, and Exon19 deletion (A746-750) EGFR were monitored using Mesoscalc™ multiplex assays (MSD), in which levels of phosphorylated EGFR protein were determined using total […] levels as a control. H1975 (T790M/L858R), HCC827 (Δ746-750) and A549 (wild-type EGFR) NSCLC cells were plated on 6-well tissue culture plates, serum starved for overnight and treated with 9 concentrations of compound starting at 2 μM (5-fold dilutions) for 60 min. Wild-type A549 cells were challenged with 100 ng/ml EGF for 15 min before collection. Cells were lysed according to manufacturer's instructions and lysates processed for analysis in the […]) multiplex plate reader.

[2] = molecular target: T2, wild-type EGFR phosphorylation in A549 NSCLC cells (Homo sapiens, UniProt P00533); assay: Detection of pEGFR on NSCLC cell lines (MSD multiplex), A549; conditions: 60 min compound, 100 ng/ml EGF for 15 min
T2 construct: Wild-type A549 cells were challenged with 100 ng/ml EGF for 15 min before collection; endogenous in cells; host or cells: A549 NSCLC cells
T2 sequence (P00533 25-1210): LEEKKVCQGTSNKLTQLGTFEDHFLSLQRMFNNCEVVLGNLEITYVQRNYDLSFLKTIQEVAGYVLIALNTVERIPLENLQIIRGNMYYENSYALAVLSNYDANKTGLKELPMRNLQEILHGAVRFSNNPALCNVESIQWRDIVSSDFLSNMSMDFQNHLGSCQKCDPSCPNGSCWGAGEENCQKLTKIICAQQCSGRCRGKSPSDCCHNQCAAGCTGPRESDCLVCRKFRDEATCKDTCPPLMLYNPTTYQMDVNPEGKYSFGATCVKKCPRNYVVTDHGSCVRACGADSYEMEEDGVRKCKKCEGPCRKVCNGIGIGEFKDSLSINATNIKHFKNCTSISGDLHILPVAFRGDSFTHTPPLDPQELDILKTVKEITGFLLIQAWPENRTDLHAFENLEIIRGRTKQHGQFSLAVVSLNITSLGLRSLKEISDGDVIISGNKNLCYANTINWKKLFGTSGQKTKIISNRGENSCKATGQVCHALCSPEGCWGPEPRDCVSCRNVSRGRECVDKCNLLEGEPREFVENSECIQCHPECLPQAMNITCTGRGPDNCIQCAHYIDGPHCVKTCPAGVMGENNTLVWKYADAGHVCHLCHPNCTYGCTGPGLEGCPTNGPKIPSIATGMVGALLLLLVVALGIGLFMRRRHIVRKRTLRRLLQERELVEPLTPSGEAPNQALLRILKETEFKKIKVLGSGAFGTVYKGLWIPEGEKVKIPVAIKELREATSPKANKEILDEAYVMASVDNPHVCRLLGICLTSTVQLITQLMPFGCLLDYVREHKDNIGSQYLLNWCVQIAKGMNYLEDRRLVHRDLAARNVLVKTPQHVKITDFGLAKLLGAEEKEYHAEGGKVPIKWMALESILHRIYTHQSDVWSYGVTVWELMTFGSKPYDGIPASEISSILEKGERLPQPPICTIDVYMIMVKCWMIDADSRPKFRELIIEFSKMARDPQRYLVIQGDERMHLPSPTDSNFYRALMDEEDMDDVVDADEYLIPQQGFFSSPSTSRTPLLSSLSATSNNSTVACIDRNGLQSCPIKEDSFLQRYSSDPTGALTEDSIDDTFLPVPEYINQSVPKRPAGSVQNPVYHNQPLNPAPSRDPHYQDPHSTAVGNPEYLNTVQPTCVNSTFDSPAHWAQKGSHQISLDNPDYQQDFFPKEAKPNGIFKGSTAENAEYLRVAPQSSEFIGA
Experimental: as §1

[3] = test system: H1975 (T790M/L858R) NSCLC cells; assay: Inhibition of proliferation of NSCLC cell lines, H1975; conditions: Cell Titer Glow; for IC50: Homo sapiens, NCI-H1975, 72 h, read-out: H1975 cell killing IC50; for H1975 cell killing IC50: 72 h
Experimental: (§2) NSCLC cell lines H1975 (T790M/L858R), HCC827 (Δ746-750) and A549 (wild-type) were seeded in 96-well tissue culture plates (Corning, Lowell, Mass.) at 5,000 cells/well (H1975) and 4,000 cells/well (HCC827 and A549) in 95 μL of cell growth media overnight. Compounds starting at 10 mM concentration and diluted 8 times (4-fold dilutions) in DMSO were diluted 50 fold in RPM1 then 5 μL was added to cells. After 72 h, viable cell signal was quantified using Cell Titer Glow (Promega, Madison, Wis.) and a SpectraMax M5 plate reader (Molecular Devices, Sunnyvale, Calif.) per manufacturer's instructions. Final DMSO concentration in test and control wells was 0.1%. No DSMO effect was noted on cell growth.

[4] = test system: HCC827 (Δ746-750) NSCLC cells; assay: Inhibition of proliferation of NSCLC cell lines, HCC827; conditions: Homo sapiens, 72 h, Cell Titer Glow, read-out: HCC827 cell killing IC50
Experimental: as §2

[5] = molecular target: T3, T790M mutant EGFR phosphorylation in H1975 (T790M/L858R) NSCLC cells (Homo sapiens, UniProt P00533, L858R/T790M); assay: Detection of pEGFR on NSCLC cell lines (MSD multiplex), H1975; conditions: serum starved, 60 min compound
T3 construct: endogenous in cells; host or cells: H1975 NSCLC cells
T3 sequence (P00533 25-1210 T790M/L858R): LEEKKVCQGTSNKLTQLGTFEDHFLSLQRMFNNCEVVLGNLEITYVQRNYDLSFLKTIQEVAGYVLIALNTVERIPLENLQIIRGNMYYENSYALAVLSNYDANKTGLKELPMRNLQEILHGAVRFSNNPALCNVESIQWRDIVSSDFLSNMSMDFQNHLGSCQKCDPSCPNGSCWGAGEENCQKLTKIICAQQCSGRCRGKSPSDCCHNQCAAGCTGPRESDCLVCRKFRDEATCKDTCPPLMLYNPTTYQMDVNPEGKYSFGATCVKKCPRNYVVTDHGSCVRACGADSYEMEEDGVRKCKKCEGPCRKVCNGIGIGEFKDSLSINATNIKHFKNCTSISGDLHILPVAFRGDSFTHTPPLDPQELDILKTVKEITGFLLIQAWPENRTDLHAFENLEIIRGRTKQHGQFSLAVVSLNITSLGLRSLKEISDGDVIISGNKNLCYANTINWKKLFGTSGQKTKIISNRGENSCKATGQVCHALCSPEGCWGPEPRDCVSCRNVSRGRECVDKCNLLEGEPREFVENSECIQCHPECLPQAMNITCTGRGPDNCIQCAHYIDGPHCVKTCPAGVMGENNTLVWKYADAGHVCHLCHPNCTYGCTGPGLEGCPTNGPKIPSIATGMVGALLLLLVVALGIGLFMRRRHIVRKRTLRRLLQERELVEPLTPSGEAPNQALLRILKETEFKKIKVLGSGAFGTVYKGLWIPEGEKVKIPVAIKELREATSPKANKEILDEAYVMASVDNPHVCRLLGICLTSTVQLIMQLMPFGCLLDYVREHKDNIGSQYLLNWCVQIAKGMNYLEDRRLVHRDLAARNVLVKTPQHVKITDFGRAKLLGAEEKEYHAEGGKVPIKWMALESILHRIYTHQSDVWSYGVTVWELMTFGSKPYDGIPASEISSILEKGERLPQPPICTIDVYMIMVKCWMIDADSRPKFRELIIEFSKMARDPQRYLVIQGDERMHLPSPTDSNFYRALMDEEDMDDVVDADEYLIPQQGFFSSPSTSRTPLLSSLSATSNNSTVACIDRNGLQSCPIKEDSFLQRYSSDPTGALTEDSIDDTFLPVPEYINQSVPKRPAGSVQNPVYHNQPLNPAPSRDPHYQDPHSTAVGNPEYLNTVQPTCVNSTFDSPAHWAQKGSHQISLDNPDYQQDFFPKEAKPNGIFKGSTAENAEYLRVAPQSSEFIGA
Experimental: as §1

IC50 [1]	IC50 [2]	IC50 [5]	SMILES	IC50 [3]	IC50 [4]	H1975 cell killing IC50 [3]
3.4 nM	76 nM	3.2 nM	C=CC(=O)Nc1cccc(-n2c(=O)ccc3cnc(Nc4ccc(N5CCN(C)CC5)cc4OC)nc32)c1 [Example 1, N-(3-(2-((2-methoxy-4-(4-methyl-1-piperazinyl)phenyl)amino)-7-oxopyrido[2,3-d]pyrimidin-8(7H)-yl)phenyl)-2-propenamide]	8 nM	4 nM	
			C=CC(=O)Nc1cccc(-n2c(=O)ccc3cnc(Nc4ccc(N5CCOCC5)cc4OC)nc32)c1 [Example 2, N-(3-(2-((2-methoxy-4-(4-morpholinyl)phenyl)amino)-7-oxopyrido[2,3-d]pyrimidin-8(7H)-yl)phenyl)-2-propenamide]			undefined
			C/C=C/C(=O)Nc1cccc(-n2c(=O)ccc3cnc(Nc4ccc(N5CCN(C)CC5)cc4OC)nc32)c1 [Example 3, (2E)-N-(3-(2-((2-methoxy-4-(4-methyl-1-piperazinyl)phenyl)amino)-7-oxopyrido[2,3-d]pyrimidin-8(7H)-yl)phenyl)-2-butenamide]	326 nM	126 nM	
			C=CC(=O)Nc1cccc(-n2c(=O)ccc3cnc(Nc4ccc(N5CCN(C)CC5)cc4)nc32)c1 [Example 4, N-(3-(2-((4-(4-methyl-1-piperazinyl)phenyl)amino)-7-oxopyrido[2,3-d]pyrimidin-8(7H)-yl)phenyl)-2-propenamide]	0.7 nM	1 nM	
	8.2 nM	4.3 nM	C=CC(=O)Nc1cccc(-n2c(=O)c(CC)cc3cnc(Nc4ccc(N5CCN(C)CC5)cc4OC)nc32)c1 [Example 6, N-(3-(6-ethyl-2-((2-methoxy-4-(4-methyl-1-piperazinyl)phenyl)amino)-7-oxopyrido[2,3-d]pyrimidin-8(7H)-yl)phenyl)-2-propenamide]	12 nM		
			C=CC(=O)Nc1cccc(-n2c(=O)cc(C)c3cnc(Nc4ccc(N5CCOCC5)cc4OC)nc32)c1 [Example 7, N-(3-(2-((2-methoxy-4-(4-morpholinyl)phenyl)amino)-5-methyl-7-oxopyrido[2,3-d]pyrimidin-8(7H)-yl)phenyl)-2-propenamide]		2.81 nM	undefined
			C=CC(=O)Nc1cccc(-n2c(=O)ccc3cnc(Nc4cnc(N5CCN(C)CC5)cc4OC)nc32)c1 [Example 8, N-(3-(2-((4-methoxy-6-(4-methyl-1-piperazinyl)-3-pyridinyl)amino)-7-oxopyrido[2,3-d]pyrimidin-8(7H)-yl)phenyl)-2-propenamide]	92 nM	21 nM	
			COc1cc(N2CCN(C)CC2)ccc1Nc1ncc2ccc(=O)n(-c3cccc(NC(=O)/C=C/CN(C)C)c3)c2n1 [Example 9, (2E)-4-(dimethylamino)-N-(3-(2-((2-methoxy-4-(4-methyl-1-piperazinyl)phenyl)amino)-7-oxopyrido[2,3-d]pyrimidin-8(7H)-yl)phenyl)-2-butenamide]	361 nM	53 nM	
	84 nM	2 nM	C=CC(=O)Nc1ccc(F)c(-n2c(=O)ccc3cnc(Nc4ccc(N5CCN(C)CC5)cc4OC)nc32)c1 [Example 10, N-(4-fluoro-3-(2-((2-methoxy-4-(4-methyl-1-piperazinyl)phenyl)amino)-7-oxopyrido[2,3]pyrimidin-8(7H)-yl)phenyl)-2-propenamide]	4 nM	4 nM	
5 nM	155 nM	6 nM	C=CC(=O)Nc1cccc(-n2c(=O)ccc3cnc(Nc4ccc(NC5CN(CCF)C5)cc4OC)nc32)c1 [Example 11, N-(3-(2-((4-((1-(2-fluoroethyl)-3-azetidinyl)amino)-2-methoxyphenyl)amino)-7-oxopyrido[2,3-d]pyrimidin-8(7H)-yl)phenyl)-2-propenamide]	9.6 nM	3 nM	
			COc1cc(N2CCN(C)CC2)ccc1Nc1ncc2ccc(=O)n(-c3cccc(NC(=O)CCl)c3)c2n1 [Example 12, 2-chloro-N-(3-(2-((2-methoxy-4-(4-methyl-1-piperazinyl)phenyl)amino)-7-oxopyrido[2,3-d]pyrimidin-8(7H)-yl)phenyl)acetamide]	680 nM	18 nM	
			COc1cc(N2CCN(C)CC2)ccc1Nc1ncc2ccc(=O)n(-c3cccc(NC(=O)CCN(C)C)c3)c2n1 [Example 13, 3-(dimethylamino)-N-(3-(2-((2-methoxy-4-(4-methylpiperazin-1-yl)phenyl)amino)-7-oxopyrido[2,3-d]pyrimidin-8(7H)-yl)phenyl)propanamide]	128 nM	76 nM	
			C=CC(=O)Nc1cccc(-n2c(=O)ccc3cnc(Nc4ccc(NC5CN(C(C)=O)C5)cc4OC)nc32)c1 [Example 14, N-(3-(2-((4-((1-acetylazetidin-3-yl)amino)-2-methoxyphenyl)amino)-7-oxopyrido[2,3-d]pyrimidin-8(7H)-yl)phenyl)acrylamide]	190 nM	24 nM	
			C=CC(=O)Nc1cccc(-n2c(=O)ccc3cnc(Nc4ccc(N5CCN(C)CC5)cc4Cl)nc32)c1 [Example 15, N-(3-(2-((2-chloro-4-(4-methyl-1-piperazinyl)phenyl)amino)-7-oxopyrido[2,3-d]pyrimidin-8(7H)-yl)phenyl)-2-propenamide]	11 nM	3.5 nM	
			C=CC(=O)Nc1cccc(-n2c(=O)cc(C)c3cnc(Nc4ccc(NC5CN(CCF)C5)cc4OC)nc32)c1 [Example 16, N-(3-(2-((4-((1-(2-fluoroethyl)-3-azetidinyl)amino)-2-methoxyphenyl)amino)-5-methyl-7-oxopyrido[2,3-d]pyrimidin-8(7H)-yl)phenyl)-2-propenamide]	22 nM	18 nM	
			C=CC(=O)Nc1cccc(-n2c(=O)cc(C)c3cnc(Nc4ccc(N5CCN(C)CC5)cc4)nc32)c1 [Example 17, N-(3-(5-methyl-2-((4-(4-methylpiperazin-1-yl)phenyl)amino)-7-oxopyrido[2,3-d]pyrimidin-8(7H)-yl)phenyl)acrylamide]	3.6 nM	7.3 nM	

SMILES	IC50 [1]	IC50 [2]	IC50 [5]	IC50 [3]	IC50 [4]	H1975 cell killing IC50 [3]
C=CC(=O)Nc1cccc(-n2c(=O)cc(C)c3cnc(Nc4ccc(N5CCN(C)CC5)cc4OC)nc32)c1 [Example 5]	8 nM	323 nM	2.8 nM	4 nM	10 nM	
